# Patent US11433053B2, “LSD1 inhibitor and preparation method and application thereof” (CSPC ZHONGQI PHARMACEUTICAL TECHNOLOGY (SHIJIAZHUANG) CO., …, priority 2017, dated 2022)
# Tested on: H1417 cells
# Test: Cell proliferation inhibitory activity on H1417 cells (CellTiter-Glo, 10 days)
# Assay type: cell-based, human
# Conditions: Homo sapiens; for IC50: NCI-H1417, 240 h, H1417 cells, 10 days incubation; for Emax: NCI-H1417, H1417 cells, highest percentage inhibition of cell viability, read-out: Maximum inhibition percentage (%)
# Procedure: Experimental purposes: To test the proliferation inhibitory activities of the test compounds on H1417 cells.
# Experimental materials: RPMI 1640 medium, fetal bovine serum, Promega CellTiter-Glo reagent. The H1417 cell line purchased from ATCC. Envision Multi-Label Analyzer (PerkinElmer).
# Experimental method: H1417 cells were seeded in a black 384-well plate, 1000 cells per well in […] of cell suspension. The test compounds were diluted 3-fold with Epmotion to the 10th concentration i.e, the compounds were diluted from 10 mmol to […], and a double duplicate well experiment was set. 198 μL medium was added to the middle plate, according to the corresponding position, 2 μL gradient diluted compounds were added to the middle plate. The mixture was mixed evenly and transferred 20 μL per well to the cell plates. The cell plates were incubated in a carbon dioxide incubator for 10 days. 25 μL of Promega CellTiter-Glo reagent per well was added to the cell plate and the mixture was incubated for 10 minutes at room temperature to stabilize the luminescence signal. Readings were performed by PerkinElmer Envision multi-label analyzer.
# Data analysis: The original data was converted to the inhibition rate by the equation (Max-Ratio)/(Max-Min)*100%, and the value of IC50 can be obtained by curve fitting with four parameters. (Model 205 in XLFIT5, iDBS)
# The growth inhibitory activities of the test compounds on H1417 cells were classified as + for IC50≤100 nM; ++ for IC50>100 nM and ≤500 nM; +++ for IC50>500 nM and ≤1000 nM; the highest percentage inhibition of cell viability was classified as: […]; 90%>B≥70%; 70%>C≥50%.
SMILES,IC50 [nM],Emax [%]
c1ccc(C2C[C@@H]2NCC2(CN3CCc4ccncc4C3)CC2)cc1 (stereo partly drawn) [Example 49],500 to 1000,90 to 100
O=C(O)c1ccc2c(c1)CN(CC1(CN[C@H]3CC3c3ccccc3)CC1)CC2 (stereo partly drawn) [Example 53],500 to 1000,90 to 100
c1ccc(C2C[C@@H]2NCC2(CN3CCc4ccccc4CC3)CC2)cc1 (stereo partly drawn) [Example 58],100 to 500,70 to 90
c1ccc(C2C[C@@H]2NCC2(CN3Cc4ccncc4C3)CC2)cc1 (stereo partly drawn) [Example 61],500 to 1000,50 to 70
O=C(O)C1CCC(c2nc(C3(CN[C@H]4CC4c4ccccc4)CC3)no2)CC1 (stereo partly drawn) [Example 67],100 to 500,50 to 70
c1ccc(C2C[C@@H]2NCC2(CN3CCCC3)CC2)cc1 (stereo partly drawn) [Example 77],≤ 100,70 to 90
FC(F)(F)C1CCN(CC2(CN[C@H]3CC3c3ccccc3)CC2)CC1 (stereo partly drawn) [Example 80],100 to 500,50 to 70
N#CC1CCN(CC2(CN[C@H]3CC3c3ccccc3)CC2)CC1 (stereo partly drawn) [Example 81],≤ 100,50 to 70
CC1CCN(CC2(CN[C@H]3CC3c3ccccc3)CC2)C1 (stereo partly drawn) [Example 98],100 to 500,50 to 70
O=C(O)c1ccc2c(c1)CCN(CC1(CN[C@H]3CC3c3ccccc3)CC1)C2 (stereo partly drawn) [Example 101],500 to 1000,50 to 70
CC(=O)N1CCC(c2nc(C3(CN[C@H]4CC4c4ccccc4)CC3)no2)CC1 (stereo partly drawn) [Example 105],100 to 500,70 to 90
CN(C)[C@H]1CC[C@H](c2nc(C3(CN[C@H]4CC4c4ccccc4)CC3)no2)CC1 (stereo partly drawn) [Example 108],500 to 1000,70 to 90
c1ccc(C2C[C@@H]2NCC2(CN3CCC3)CC2)cc1 (stereo partly drawn) [Example 211],100 to 500,50 to 70

# Continued, in another order:
IC50 [nM],SMILES,Emax [%]
100 to 500,Clc1ccc2oc(C3(CN[C@H]4CC4c4ccccc4)CC3)nc2c1 (stereo partly drawn) [Example 47],50 to 70
100 to 500,FC(F)(F)c1ccc2c(c1)CN(CC1(CN[C@H]3CC3c3ccccc3)CC1)CC2 (stereo partly drawn) [Example 51],70 to 90
500 to 1000,O=C(O)C1CCN(CC2(CN[C@H]3CC3c3ccccc3)CC2)CC1 (stereo partly drawn) [Example 54],50 to 70
100 to 500,FC(F)(F)c1ccc2c(c1)CN(CC1(CN[C@H]3CC3c3ccccc3)CC1)C2 (stereo partly drawn) [Example 55],70 to 90
500 to 1000,O=C(O)c1ccc(C2CCN(CC3(CN[C@H]4CC4c4ccccc4)CC3)CC2)cc1 (stereo partly drawn) [Example 56],50 to 70
500 to 1000,c1ccc(C2C[C@@H]2NCC2(CN3CCCCc4ccccc43)CC2)cc1 (stereo partly drawn) [Example 60],50 to 70
100 to 500,c1ccc(C2C[C@@H]2NCC2(c3nc4ccccc4o3)CC2)cc1 (stereo partly drawn) [Example 76],50 to 70
100 to 500,O=C(O)c1ccc(CN2CCC(c3nc(C4(CN[C@H]5CC5c5ccccc5)CC4)no3)CC2)cc1 (stereo partly drawn) [Example 82],50 to 70
500 to 1000,Clc1ccc(-n2cc(C3(CN[C@H]4CC4c4ccccc4)CC3)nn2)cc1 (stereo partly drawn) [Example 96],50 to 70
500 to 1000,O=C(O)c1ccc(N2CCC(c3nc(C4(CN[C@H]5CC5c5ccccc5)CC4)no3)CC2)cc1 (stereo partly drawn) [Example 103],50 to 70
500 to 1000,CS(=O)(=O)n1cc2c(n1)CN(CC1(CN[C@H]3CC3c3ccccc3)CC1)C2 (stereo partly drawn) [Example 106],50 to 70
100 to 500,CC1(C)CCN(CC2(CN[C@H]3CC3c3ccccc3)CC2)C1 (stereo partly drawn) [Example 202],70 to 90
100 to 500,C[C@H]1CCCN1CC1(CN[C@H]2CC2c2ccccc2)CC1 (stereo partly drawn) [Example 212],50 to 70
100 to 500,CN1CCC(c2nc(C3(CN[C@H]4CC4c4ccccc4)CC3)no2)CC1=O (stereo partly drawn) [Example 218],70 to 90
